Data taken from patent US10688153B2, “Peptides and method for treatment of cardiac arrest” (THE BOARD OF TRUSTEES OF THE UNIVERSITY OF ILLINOIS, priority 2015, dated 2020).
Ends that are not written are not given here.

Experiments:
cell death = conditions: Zhu et al. 2014, cited from earlier work
mouse model of SCA [1] = assay: Blood sorbitol and taurine concentrations in mouse model of SCA; format: in vivo
Text: Metabolism alteration and energy production are critical outcomes following SCA. Using a mouse model of SCA (Li, et al. (2015) Am. J. Physiol. Heart Circ. Physiol. 308:H1414-22), several metabolic compounds were identified as diagnostic markers for use in guiding the selection of treatment protocols (e.g., active cooling, therapeutic hypothermia, or modified PDZ binding domain peptide therapies).

mouse model of SCA [2] = conditions: Li et al. 2015; cited from earlier work
PTEN = PTEN (Homo sapiens, UniProt P60484); conditions: cited from earlier work
Sequence of PTEN (P60484 whole entry, species assumed): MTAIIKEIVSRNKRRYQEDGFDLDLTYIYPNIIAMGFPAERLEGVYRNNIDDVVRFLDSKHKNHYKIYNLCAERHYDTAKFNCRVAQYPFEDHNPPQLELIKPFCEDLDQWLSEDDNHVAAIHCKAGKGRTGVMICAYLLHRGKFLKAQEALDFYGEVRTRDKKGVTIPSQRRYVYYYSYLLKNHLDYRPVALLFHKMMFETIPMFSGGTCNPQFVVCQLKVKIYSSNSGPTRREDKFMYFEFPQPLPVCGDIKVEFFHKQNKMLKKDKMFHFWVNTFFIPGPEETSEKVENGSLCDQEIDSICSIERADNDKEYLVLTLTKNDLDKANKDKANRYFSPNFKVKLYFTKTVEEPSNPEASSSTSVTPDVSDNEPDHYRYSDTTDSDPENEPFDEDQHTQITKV

C57BL6 mice [3] = assay: Potassium-induced SCA protocol, nicotinamide during CPR plus TAT-PTEN9c after ROSC (Example 3); format: in vivo, mouse; conditions: about 12 minute down time
Experimental: The benefit of co-administration of nicotinamide (NAM) with TAT-PTEN9c was evaluated. C57BL6 mice were subjected to an established potassium-induced 8-minute SCA protocol. Nicotinamide (Vitamin B3) was administered during CPR and TAT-PTEN9c was administered after ROSC with about a 12 minute down time for each group.

[4] = tested on: Akt phosphorylation in mouse cardiomyocytes; assay: Western blot of Akt phosphorylation in mouse cardiomyocytes exposed to H2O2 or IGF-1; format: cell-based
Text: (§1) Mouse cardiomyocytes were isolated from 1-3 day old mouse pups according to known methods (Zhu, et al. (2014) PLoS One 9:e95622). Western blot analysis was used to determine the efficacy of a representative peptide of the invention (TAT-PTEN9c) for enhancing Akt phosphorylation in mouse cardiomyocytes exposed to oxidant (H2O2) or IGF-1. C57BL6 mice were subjected to an established potassium-induced 8-minute SCA protocol (Li, et al. (2015) Am. J. Physiol. Heart Circ. Physiol. 308:H1414-22). Mean arterial blood pressure (MAP), end-tidal CO2 (EtCO2), body temperature and electrocardiogram (ECG) were recorded until […] after successful cardiopulmonary resuscitation (CPR). TAT-PTEN9c (7.5 mg/kg) or saline was given intravenously (IV) immediately after ROSC. A mouse survival curve was generated by Kaplan-Meyer analysis. IV administration of TAT-GFP was used to measure the kinetics of heart and brain tissue TAT protein delivery.

C57BL6 mice [5] = assay: Potassium-induced 8-minute SCA protocol, timing of administration during CPR or after ROSC (Example 2); format: in vivo, mouse; conditions: for MAP: 7.5 mg/kg IV administered after ROSC
Experimental: To determine timing of modified peptide administration, TAT-PTEN9c was administrated during CPR or after ROSC. C57BL6 mice were subjected to an established potassium-induced 8-minute SCA protocol (Li, et al. (2015) Am. J. Physiol. Heart Circ. Physiol. 308:H1414-22). Mean arterial blood pressure (MAP) was recorded until 4 hours after successful CPR. TAT-PTEN9c (7.5 mg/kg) or saline (NS) was given intravenously (IV) during CPR and immediately after ROSC.

C57BL6 mice [6] = assay: Potassium-induced 8-minute SCA protocol, peptide IV immediately after ROSC (Example 1); format: in vivo, mouse
Text: as §1

[7] = 240 minutes, 7.5 mg/kg IV immediately after ROSC

## O=C(O)c1ncccc1O.O=C(O)c1ncccc1O.[O]=[V][O-] [VO-OHpic]
Cell death; I/R injury
  reduction in cell death: almost four-fold reduction
Cell death
  phosphorylated Akt: significant increase
Mouse model of SCA [1]
  blood sorbitol concentration: reduced
  blood taurine concentration: reduced
Mouse model of SCA [2]
  recovery and survival: improved recovery and survival
PTEN
  inhibition of PTEN: potent inhibition

## NC(=O)c1cccnc1 [nicotinamide]
C57BL6 mice [3]
  survival time of all mice: less than 1 hours

## YGRKKRRQRRRDQHSQITKV (not fully specified (C-terminus)) [TAT-PTEN9c, 20-residue peptide: Tat transduction domain plus C-terminal 9 residues of mouse PTEN]
[4]; FIG. 1C
  time to Akt activation after administration: ≤ 10 min
[4]; H2O2, concentration-dependent, FIG. 1A
  Akt activation in response to H2O2: enhances Akt activation
[4]; IGF-1, concentration-dependent, FIG. 1B
  Akt activation in response to IGF-1: enhances Akt activation
C57BL6 mice [5]; 7.5 mg/kg IV administered during CPR
  resuscitation rate: no improvement
C57BL6 mice [5]; 30 minutes after ROSC
  MAP: 65.2±1.1 mmHg
C57BL6 mice [5]; 4 hours after ROSC, p<0.05 vs NS
  MAP: 49.9±0.7 mmHg
C57BL6 mice [6]; 15 (R15) and 30 (R30) minutes after ROSC, vs saline control (NS), FIG. 3
  brain tissue sorbitol content: significantly decreased
C57BL6 mice [6]; [7]
  EtCO2: 36.2 ± 6.7 mmHg
  Heart Rate: 502.0 ± 62.2 bpm
  MAP: 52.7 ± 9.3 mmHg
  Survival (%): 66.7%
C57BL6 mice [6]; administered immediately after ROSC, vs saline control, FIG. 4
  survival of mice after cardiac arrest: significantly improves survival
